Active and inactive are the calls of the source. The rule behind the calls is not given here.
target: Human immunodeficiency virus type 1 protease (Human immunodeficiency virus 1) (UniProt Q72874); experiment: Tested in vitro for inhibition of HIV-1 protease at concentration of 10e-6 M; No activity

| inhibition | Structure (SMILES) |
| --- | --- |
| inactive | CC(C)(C)NC(=O)C1Cc2ccccc2CN1CC(O)CN1Cc2ccccc2CC1C(=O)NC(C)(C)C (centres undefined) |
| inactive | CC(C)C(NC(=O)CN(Cc1ccccc1)CC(O)CN(CC(=O)NC(C(=O)NC(C)(C)C)C(C)C)Cc1ccccc1)C(=O)NC(C)(C)C (centres undefined) |
| inactive | N[C@H](CCNC(=O)C1Cc2ccccc2CN1CC(O)CN1Cc2ccccc2CC1C(=O)NCC[C@H](N)C(=O)O)C(=O)O (some centres undefined) |
| inactive | CC(C)C(NC(=O)C1Cc2ccccc2CN1CC(O)CN1Cc2ccccc2CC1C(=O)NC(C(=O)NC(C)(C)C)C(C)C)C(=O)NC(C)(C)C (centres undefined) |
